Test results from patent publication US10105323B2, “Pharmaceutical dosage form for immediate release of an indolinone derivative” (Boehringer Ingelheim International GmbH, priority 2008, dated 2018).
Read-outs that look alike come from different tables or passages of the source.

How the values were obtained:
[1] = Phase I trials in cancer patients, dose proportionality of plasma exposure; format: in vivo, human; conditions: single dose and steady state, qd and bid dosing, visual inspection
Excerpt: However, in three Phase I trials in cancer patients with various advanced solid tumors there was no sign for a deviation from a dose proportional increase in AUC and Cmax of the active substance observed through visual inspection neither after single dose nor at steady state for once and twice daily dosing (FIGS. 9 and 10). […] There was no deviation from dose-proportionality observed for drug plasma concentrations measured before drug administration at steady state (Cpre,ss) in cancer patients in various clinical trials, found through visual inspection.

[2] = Phase 2 monotherapy trials in NSCLC or HRPC patients, pre-dose plasma concentrations; format: in vivo, human; conditions: 150 and 250 mg twice daily, soft gelatin capsule
[3] = Stress, long-term and accelerated stability studies of soft gelatin capsule systems; format: physicochemical; conditions: 1 month at 70° C., long-term (3 years), accelerated (6 months)
Excerpt: An advantage of such soft gelatin capsule containing a lipid suspension is that the water uptake into the formulation is very unlikely. The dosage form is divided into three different compartments, namely (a) a hydrophilic capsule shell and (b) the hydrophobic carrier system in which (c) the slightly hygroscopic powder of active substance is suspended. Due to ambient moisture the content of water may vary within these different compartments. It will migrate by diffusion until an equilibrium state is reached. The water content may affect different properties of the drug product, such as the chemical stability of the active substance (predominantly via hydrolysis), the dissolution of the active substance, or the elasticity of the capsule shell. The water uptake in the present system is primarily in the capsule shell. This can be shown by water vapour sorption experiments as well as by the correlation of the mass gain with the softening of the capsule (shown in FIG. 1). […] This is confirmed by the stress stability studies of, for example, 1 month at 70° C., and by long-term (3 years) and accelerated (6 months) stability study results for the systems in accordance with the present invention.

[4] = human, in vivo

gMean AUCτ,ss versus dose [1]: increased in a dose-proportional manner | gMean Cmax,ss versus dose [1]: increased in a dose-proportional manner | effect of water uptake on chemical stability [3]: not affect the chemical stability | time to reach maximum plasma concentration (median value) [4]: 2 h | time to reach maximum plasma concentration (range) [4]: 0.75 to 6 h | plasma concentration of the active substance at maximum (gMean value) ([4]; 150 mg): about 9 ng/mL | plasma concentration as % of the maximum plasma concentration ([4]; 24 h): about 15% | plasma concentration as % of the maximum plasma concentration ([4]; 48 h): 7-8%
Structure (SMILES): COC(=O)c1ccc2c(c1)NC(=O)/C2=C(\Nc1ccc(N(C)C(=O)CN2CCN(C)CC2)cc1)c1ccccc1 [active substance, 3-Z-[1-(4-(N-((4-methyl-piperazin-1-yl)-methylcarbonyl)-N-methyl-amino)-anilino)-1-phenyl-methylene]-6-methoxycarbonyl-2-indolinone-monoethanesulphonate]
pre-dose plasma concentrations at steady state versus dose [2]: no obvious deviation from a dose proportional increase
